Source: PMC8624998, “Synthesis and Antiproliferative Evaluation of 3-Chloroazetidin-2-ones with Antimitotic Activity: Heterocyclic Bridged Analogues of Combretastatin A-4” (Pharmaceuticals, 2021)
Where two headings read alike, the source gives them in different places. Each block holds one molecule with its values, some of them ahead of it.

Legend:
[1] = NCI 60 cell line screen, full panel; assay type: cell-based; details: human
Excerpt: (§1) The novel 3-haloazetidinone compounds 10e, 11n and 16d were selected by NCI for further biological evaluation in the NCI 60 cell line screen following an initial Tier 1 profiling screen. […]. these values were in the sub-micromolar range for all the cell lines tested except for the breast cancer cell line T-47D, where the progesterone receptors are not regulated by estradiol. […]. [table]

[2] = test system: NCI 60 cell line panel; assay: NCI 60 cell line screen, full panel; assay type: cell-based; details: for GI50: Homo sapiens; for LC50: read-out: LC50 (mean over NCI 60 panel)
Excerpt: as §1

[3] = test system: NCI-H226; assay: NCI-60 5 dose screen, NSC Lung Cancer; assay type: cell-based; details: Homo sapiens
[4] = test system: NCI-H552; assay: NCI-60 5 dose screen, NSC Lung Cancer; assay type: cell-based; details: Homo sapiens
[5] = test system: HT29; assay: NCI-60 5 dose screen, Colon Cancer; assay type: cell-based; details: Homo sapiens, HT-29
[6] = test system: SF-268; assay: NCI-60 5 dose screen, CNS Cancer; assay type: cell-based; details: Homo sapiens
[7] = test system: SF295; assay: NCI-60 5 dose screen, CNS Cancer; assay type: cell-based; details: Homo sapiens, SF-295
[8] = test system: SNB-19; assay: NCI-60 5 dose screen, CNS Cancer; assay type: cell-based; details: Homo sapiens
[9] = test system: DU-145; assay: NCI-60 5 dose screen, Prostate cancer; assay type: cell-based; details: Homo sapiens
[10] = test system: SK-MEL-28; assay: NCI-60 5 dose screen, Melanoma; assay type: cell-based; details: Homo sapiens
[11] = test system: IGROV1; assay: NCI-60 5 dose screen, Ovarian Cancer; assay type: cell-based; details: Homo sapiens, IGROV-1
[12] = test system: OVCAR-3; assay: NCI-60 5 dose screen, Ovarian Cancer; assay type: cell-based; details: Homo sapiens
[13] = test system: OVCAR-5; assay: NCI-60 5 dose screen, Ovarian Cancer; assay type: cell-based; details: Homo sapiens
[14] = test system: NCI/ADR-RES; assay: NCI-60 5 dose screen, Ovarian Cancer; assay type: cell-based; details: Homo sapiens
[15] = test system: SK-OV-3; assay: NCI-60 5 dose screen, Ovarian Cancer; assay type: cell-based; details: Homo sapiens
[16] = test system: TK-10; assay: NCI-60 5 dose screen, Renal Cancer; assay type: cell-based; details: Homo sapiens
[17] = test system: SW480 cells; assay: Cell viability assay, antiproliferative activity; assay type: cell-based, human
Procedure: […]. The corresponding values for 10e in these cell lines were 161 nM (HL-60), 55 nM (SW480) and 135 nM (HT-29). […] […]. SW480 colon cells expressed low levels of the UDP-glucuronosyltransferase (UGT) protein compared to expression levels in HT-29 cells. […] […].
The human breast carcinoma cell line MCF-7 was purchased from the European Collection of Animal Cell Cultures (ECACC). Triple negative breast cancer Hs578T cells and its invasive variant Hs578Ts(i)8 were a kind gift from Dr. Susan McDonnell, School of Chemical and Bioprocess Engineering, University College Dublin. U266 cells were a gift from Dr. Tony McElligott, School of Medicine, St James’s Hospital, Trinity College Dublin. HT-29 cells were purchased from the European Collection of Cell Cultures (originating from a human adenocarcinoma of the colon). The human breast carcinoma cell line MDA-MB-231 and the HL-60 cells derived from a patient with acute myeloid leukaemia were both obtained from ECACC (Salisbury, UK). The SW-480 cells were a kind gift from Dr. Brian Flood, School of Biochemistry and Immunology, Trinity College Dublin. HEK-293T (normal epithelial embryonic kidney cells) were cultured in Dulbecco’s Modified Eagle’s Medium (DMEM) with GlutaMAXTM-I in the absence of non-essential amino acids. Human breast cancer MCF-7 cells and multiple myeloma U266 cells were cultured in Minimum Essential Media (MEM) with GlutaMAX™-I, supplemented with 1% (v/v) non-essential amino acids, 10% 2(v/v) foetal bovine serum (FBS) and 1% (v/v) penicillin/streptomycin 5000 U/mL. MDA-MB-231 cells were maintained in DMEM supplemented with 10% (v/v) foetal bovine serum, 2 mM L-glutamine and 100 μg/mL penicillin/streptomycin (complete medium). Colon cancer HT-29 and SW-480 and triple negative breast cancer Hs578T and its invasive variant Hs578T8i were cultured in DMEM with GlutaMAX™-I, with the same supplement in the absence of non-essential amino acids. Leukaemia HL-60 cancer cells were cultured in Roswell Park Memorial Institute Media (RPMI-1640) with GlutaMAX™-I, supplemented with 10% FCS media, and 100 μg/mL penicillin/streptomycin as above. Cell numbers were monitored using a haemocytometer. Cell culture flasks were incubated in a humidified incubator (5% CO2/95% air) at 37 °C. All cell lines were sub-cultured three times per week with trypsinisation using TrypLE Express (1X) required for adherent cell lines.
. All stock solutions and serial dilution in ethanol/DMSO were stored at -20 °C. All cells were seeded at a density of 2.5 × 10^4 cells/mL in a 96-well plate (200 μL per well). The cells were incubated in a […] atmosphere at 37 °C for 24 h, then treated with test compound (2 μL of stock solutions per 200-microlitre well) in ethanol to obtain a concentration range of 1 nM–200 μM for the study. The plates were then re-incubated for a further 72 h. Control wells contained an equivalent volume of the vehicle ethanol or DMSO (1% v/v). MTT cell viability assay: The culture medium was removed, and the cells were washed with phosphate buffered saline (PBS, […]). MTT (dissolved in PBS, […]) was added to obtain a final concentration of MTT (1 mg/mL). Cells were incubated at 37 °C for 3 h in the dark. Solubilisation was commenced by the addition of DMSO ([…]) and the cells were maintained at 20 °C in the dark for 20 min before reading the absorbance to ensure complete colour diffusion. The absorbance value of control cells (no added compound) was set to 100% cell viability and absorbance versus cell density per well was determined to assess cell viability using Graph-Pad Prism software. AlamarBlue cell viability assay: Cells were seeded in 96-well plates (e.g., MCF-7, 5 × 10^3 cells/well) and (HT-29 cells, 1 × 10^3 cells/well) and (HL-60 cells, 1 × 10^4 cells/well) with a total volume per well of 200 µL. After 24 h, cells were treated in triplicate with serial dilutions of CA-4 or β-lactam analogues (0.001–100 μM), medium alone or vehicle (1% ethanol (v/v)). […]

[18] = test system: purified bovine brain tubulin; assay: In vitro tubulin polymerisation assay; details: for Vmax at 10 µM: 10 µM compound, tubulin 3 mg/mL, vehicle 0.0069; for Fold-Reduction of Vmax of tubulin polymerisation: 10 µM
[19] = NCI 60 cancer cell line panel (mean over the panel), NCI 60 panel mean, read-out: LC50 (mean over NCI 60 panel)
[20] = 60 cell, NCI 60 panel mean, read-out: MID GI50 (full panel mean-graph mid-point)
[21] = Homo sapiens, SW480, 72 h; read-out: SW480 IC50
[22] = 60 cell, NCI 60 panel mean, read-out: GI50 (mean over NCI 60 panel)

SMILES: CCSc1ccc(C2C(Br)C(=O)N2c2cc(OC)c(OC)c(OC)c2)cc1 (stereo not drawn) [Compound 16d, 3-Bromo-4-(4-(ethylthio)phenyl)-1-(3,4,5-trimethoxyphenyl)azetidin-2-one]
LC50 [1, 19]: 83200 nM | GI50 [2, 20]: 407 nM | LC50 ([2]; NCI 60 panel mean): 81300 nM | GI50 ([3]; read-out: GI50): 3110 nM | GI50 ([4]; NCI-H552, read-out: GI50): 158 nM | GI50 ([5]; HT29, read-out: GI50): 351 nM | GI50 ([6]; read-out: GI50): 1180 nM | GI50 ([7]; SF295, read-out: GI50): 87 nM | GI50 ([8]; read-out: GI50): 440 nM | GI50 ([9]; read-out: GI50): 349 nM | GI50 ([10]; read-out: GI50): 1940 nM | GI50 ([11]; IGROV1, read-out: GI50): 63 nM | GI50 ([12]; read-out: GI50): 109 nM | GI50 ([13]; read-out: GI50): 431 nM | GI50 ([14]; read-out: GI50): 125 nM | GI50 ([15]; read-out: GI50): 392 nM | GI50 ([16]; read-out: GI50): 14300 nM

SMILES: COc1ccc(/C=C\c2cc(OC)c(OC)c(OC)c2)cc1O [CA-4, Combretastatin A-4]
IC50 [17, 21]: 3 ± 0.8 nM | GI50 [2, 22]: 99 nM | TGI (mean over NCI 60 panel) ([2]; NCI 60 panel mean): 10300 nM | Vmax at 10 µM [18]: 0.0022 mOD/min

IC50 [17, 21]: 55 ± 4 nM
SMILES: COc1ccc([C@H]2[C@H](Cl)C(=O)N2c2cc(OC)c(OC)c(OC)c2)cc1 (relative stereo) [Compound 10e trans, Trans-3-chloro-1-(3,4,5-trimethoxyphenyl)-4-(4-methoxyphenyl) azetidin-2-one]
LC50 [1, 19]: 81300 nM | LC50 ([1]; NCI 60 cancer cell line panel, individual cell lines, all but one cell line for 10e, all but four cell lines for 11n, read-out: LC50 in individual cell lines): > 100000 nM | GI50 [2, 22]: 74.1 nM | GI50 [2, 20]: 74.1 nM | LC50 ([2]; NCI 60 panel mean, listed as 10e): 91200 nM | GI50 ([3]; read-out: GI50): 55.7 nM | GI50 ([4]; NCI-H552, read-out: GI50): 20.7 nM | GI50 ([5]; HT29, read-out: GI50): 29.2 nM | GI50 ([6]; read-out: GI50): 158 nM | GI50 ([7]; SF295, read-out: GI50): 25.4 nM | GI50 ([8]; read-out: GI50): 74.6 nM | GI50 ([9]; read-out: GI50): 44.6 nM | GI50 ([10]; read-out: GI50): 69.6 nM | GI50 ([11]; IGROV1, read-out: GI50): 58 nM | GI50 ([12]; read-out: GI50): 24.1 nM | GI50 ([13]; read-out: GI50): 80.6 nM | GI50 ([14]; read-out: GI50): 35.3 nM | GI50 ([15]; read-out: GI50): 182 nM | GI50 ([16]; read-out: GI50): 92.2 nM | Fold-Reduction of Vmax of tubulin polymerisation [18]: 1.8 fold | Vmax at 10 µM [18]: 0.0039 mOD/min

SMILES: COc1ccc(C2N(c3cc(OC)c(OC)c(OC)c3)C(=O)C2(Cl)Cl)cc1O (stereo not drawn) [Compound 11n, 3,3-Dichloro-4-(3-hydroxy-4-methoxyphenyl)-1-(3,4,5-trimethoxyphenyl)azetidin-2-one]
IC50 ([17]; Homo sapiens, SW480, 72 h, read-out: SW480 IC50): 44 ± 8 nM | LC50 ([1]; NCI 60 panel mean, read-out: LC50 (mean over NCI 60 panel)): 91200 nM | LC50 ([1]; all but one cell line for 10e, all but four cell lines for 11n, read-out: LC50 in individual cell lines): > 100000 nM | GI50 ([2]; 60 cell, read-out: GI50 (mean over NCI 60 panel), NCI 60 panel mean): 53.7 nM | GI50 ([2]; 60 cell, read-out: GI50 in individual cell lines, 43 of the cell lines investigated): < 100 nM | GI50 ([2]; 60 cell, read-out: GI50 value, CNS cancer cell lines): 19.9 to 51.4 nM | GI50 ([2]; 60 cell, read-out: GI50 value, non-small cell lung cancer cell lines): 16.4 to 46.4 nM | GI50 ([2]; 60 cell, read-out: GI50 value, prostate cancer cell lines): 35.3 to 35.9 nM | GI50 ([2]; 60 cell, read-out: MID GI50 (full panel mean-graph mid-point), NCI 60 panel mean): 53.7 nM | GI50 ([2]; read-out: GI50 value, breast cancer cell lines apart from T-47D): 22.6 to 42.8 nM | TGI (mean over NCI 60 panel) ([2]; NCI 60 panel mean): 10000 nM | LC50 ([2]; NCI 60 panel mean): 83200 nM | GI50 [3]: 36.8 nM | GI50 [4]: 16.4 nM | GI50 [5]: 2780 nM | GI50 [6]: 51.4 nM | GI50 [7]: 38.7 nM | GI50 [8]: 45.7 nM | GI50 [9]: 35.9 nM | GI50 [10]: 62.9 nM | GI50 [11]: 44.5 nM | GI50 [12]: 24.4 nM | GI50 [13]: 312 nM | GI50 [14]: 26.5 nM | GI50 [15]: 25.4 nM | GI50 [16]: 126 nM | Fold-Reduction of Vmax of tubulin polymerisation [18]: 1.7 fold | Vmax at 10 µM [18]: 0.0041 mOD/min

IC50 [17, 21]: 37 ± 5 nM
SMILES: COc1ccc(C2C(Cl)C(=O)N2c2cc(OC)c(OC)c(OC)c2)cc1O (stereo not drawn) [Compound 10n, 3-Chloro-4-(3-hydroxy-4-methoxy-phenyl)-1-(3,4,5-trimethoxyphenyl)azetidin-2-one]
